Publication PMC8746696 (Molecules, 2021)

Columns and labels:
TDP1 = TDP1 (Homo sapiens, UniProt Q9NUW8); assay: Real-time fluorescence detection of TDP1 activity (FAM/BHQ1 oligonucleotide biosensor); type: biochemical; conditions: concentration that inhibits the activity of the enzyme by 50%; read-out: TDP1 IC50
Source text: For real-time detection of TDP1 activity, we used the oligonucleotide biosensor based on the ability of TDP1 to remove fluorophore quenchers from the 3′-end of DNA [29]. The hexadecameric oligonucleotide carried 5(6)-carboxyfluorescein (FAM) at the 5′-end and fluorophore quencher BHQ1 (Black Hole Quencher-1) at the 3′-end. TDP1 inhibitors prevent the removal of fluorophore quenchers, thus reducing fluorescence intensity.
TDP1 activity was detected, as described by intensity measurement in a reaction of quencher removal from a fluorophore quencher–coupled DNA oligonucleotide catalyzed by TDP1. The reaction was carried out at different concentrations of inhibitors (the control samples contained 1% of DMSO). The reaction mixtures contained TDP1 buffer (50 mM Tris-HCl pH 8.0, 50 mM NaCl, and 7 mM β-mercaptoethanol), 50 nM biosensor, and an inhibitor being tested. Purified TDP1 (1.5 nM) triggered the reaction. The biosensor (5′-[FAM] AAC GTC AGGGTC TTC C [BHQ]-3′) was synthesized in the Laboratory of Nucleic Acid Chemistry at the Institute of Chemical Biology and Fundamental Medicine (Novosibirsk, Russia).
The reactions were incubated on a POLARstar OPTIMA fluorimeter (BMG LABTECH, GmbH, Ortenberg, Germany) to measure fluorescence every 60 s (ex. 485/em. 520 nm) during the linear phase (here, data from minute 0 to minute 8). The values of IC50 were determined using a six-point concentration response curve in a minimum of three independent experiments and were calculated using MARS Data Analysis 2.0 (BMG LABTECH, Ortenberg, Germany).

[1] = Intrinsic cytotoxicity, EZ4U assay, HeLa; conditions: human, HeLa cells
Procedure: (§1) Next, we examined the intrinsic cytotoxicity of the compounds on HeLa cervical cancer cells and human embryonic kidney derived cells HEK293A.
(§2) Cytotoxicity of the compounds to HeLa (human cervical cancer) and HEK293A (human embryonic kidney) cell lines was examined using the EZ4U Cell Proliferation and Cytotoxicity Assay (Biomedica, Vienna, Austria), according to the manufacturer’s protocols. The cells were grown in Iscove’s modified Dulbecco’s medium (IMDM) with 40 μg/mL gentamicin, 50 IU/mL penicillin, 50 μg/mL streptomycin (MP Biomedicals, Waltham, MA, USA), and 10% of fetal bovine serum (Biolot, Saint Petersburg, Russia) in a 5% CO2 atmosphere. After the formation of a 30–50%monolayer, the tested compounds were added to the medium. […] The volume of the added reagents was 1/100 of the total volume of the culture medium, and the amount of DMSO was 1% of the final volume. Control cells were grown in the presence of 1% DMSO. The cell culture was monitored for three days.

recombinant human TDP2 = target: T1, recombinant human TDP2 (Homo sapiens, UniProt O95551); assay: Gel-based TDP2 activity assay (removal of 5'-tyrosine from oligonucleotide, PAGE); type: biochemical; parameters: key to Tdp2 activity, c 200 µM / Tdp2 (inhibitor concentration 1 mM): TDP2 active (+); -: inactive (−); conditions: for Tdp2 activity, c 200 µM: c 200 µM (Table S3 head); for Tdp2 (inhibitor concentration 1 mM) / remaining activity at 1000 µM: inhibitor 1 mM; for remaining activity at 1000 µM: residual enzyme activity, read-out: TDP2 (Inhibitor Concentration 1 mM), residual activity of TDP2
T1 sequence (O95551 1-362): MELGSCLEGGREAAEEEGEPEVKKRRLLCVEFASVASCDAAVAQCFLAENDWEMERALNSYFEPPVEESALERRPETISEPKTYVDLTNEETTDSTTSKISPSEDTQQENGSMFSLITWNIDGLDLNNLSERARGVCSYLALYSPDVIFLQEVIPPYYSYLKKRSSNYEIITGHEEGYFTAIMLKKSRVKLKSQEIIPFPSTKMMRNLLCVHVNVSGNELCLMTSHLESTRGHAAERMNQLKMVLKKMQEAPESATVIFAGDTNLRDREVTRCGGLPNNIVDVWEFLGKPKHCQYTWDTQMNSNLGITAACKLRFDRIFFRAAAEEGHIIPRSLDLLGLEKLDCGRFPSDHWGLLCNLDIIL
Procedure: We investigated the activity against the TDP2 enzyme for compounds 4–10, 12–15, and 17–19 (Table 1). TDP2 was tested for its ability to eliminate tyrosine residue from the 5’-end of the oligonucleotide substrate. The TDP2 reaction products were separated under denaturing conditions in polyacrylamide gel (PAGE). […] Note that as different assays formats were used for TDP1 and TDP2 inhibition, the value of these assays cannot be directly compared. A paper on derivatives of usnic acid as effective TDP1 inhibitors and mild inhibitors of TDP2 was recently published. […] More inhibitors of this enzyme have also been reported in the literature. Obviously, further work for increasing activity against TDP2 is needed.
The oligonucleotide with tyrosine residue on the 5′-end (5′-tyrosine-AAC GTC AGG GTC TTC C-FAM-3′) was used for the TDP2 enzyme activity assay. The TDP2 reaction products were separated under denaturing conditions in polyacrylamide gel (PAGE). The reaction was performed in a final volume of 20 μL using 100 nM substrate incubated with 200 nM recombinant human TDP2 in the absence or presence of the inhibitor for 10 min at 37 °C in a buffer containing 50 mM Tris-HCl, pH 8.0, 50 mM NaCl, 7 mM β-mercaptoethanol. Reactions were terminated by the addition of gel loading buffer contained 10% formamide, 7 M carbamide, 0.1% xylene cyanol, and 0,1% bromophenol blue. The samples were heated at 90 °C for 7 min before loading on the gel. The reaction products were separated by electrophoresis in a 20% denaturing PAGE with 7 M carbamide. A Typhoon FLA 9500 phosphorimager (GE Healthcare) was used for gel scanning and imaging. Each experiment was carried out in three independent replicates. The data were analyzed with QuantityOne 4.6.7 software.

[2] = Intrinsic cytotoxicity, EZ4U assay, HEK293A; conditions: human, HEK293A cells
Procedure: as §1, §2

HeLa cells [3] = assay: Influence on topotecan cytotoxicity (sensitization, combination index); type: cell-based, human
Procedure: The inhibitors were studied, using their non-toxic concentration, to determine the cytotoxicity of topotecan, which is widely used in the treatment of cancer.
The concentration of these two compounds was increased to 10 μM and a more distinct effect was observed (Figure 3B). The combination index (CI) for different concentrations of topotecan and 5 at 10 μM was in the range 0.26–0.44, and for 8 at 10 μM, it was 0.18–0.30 (Supplementary Materials, Tables S1 and S2). CI value <1 indicates a synergistic effect of topotecan and compounds 5 and 8 [34].
The cell culture was monitored for three days.

HeLa cells [4] = assay: Intrinsic cytotoxicity, EZ4U assay, HeLa; conditions: at 100 μM
Procedure: as §1, §2

HeLa cells [5] = assay: Influence on topotecan cytotoxicity (sensitization, combination index); type: cell-based, human; conditions: compound 5 μM
HeLa cells [6] = test system: HeLa cells
Procedure: as §1, §2

TDP1, sequence (Q9NUW8 whole entry): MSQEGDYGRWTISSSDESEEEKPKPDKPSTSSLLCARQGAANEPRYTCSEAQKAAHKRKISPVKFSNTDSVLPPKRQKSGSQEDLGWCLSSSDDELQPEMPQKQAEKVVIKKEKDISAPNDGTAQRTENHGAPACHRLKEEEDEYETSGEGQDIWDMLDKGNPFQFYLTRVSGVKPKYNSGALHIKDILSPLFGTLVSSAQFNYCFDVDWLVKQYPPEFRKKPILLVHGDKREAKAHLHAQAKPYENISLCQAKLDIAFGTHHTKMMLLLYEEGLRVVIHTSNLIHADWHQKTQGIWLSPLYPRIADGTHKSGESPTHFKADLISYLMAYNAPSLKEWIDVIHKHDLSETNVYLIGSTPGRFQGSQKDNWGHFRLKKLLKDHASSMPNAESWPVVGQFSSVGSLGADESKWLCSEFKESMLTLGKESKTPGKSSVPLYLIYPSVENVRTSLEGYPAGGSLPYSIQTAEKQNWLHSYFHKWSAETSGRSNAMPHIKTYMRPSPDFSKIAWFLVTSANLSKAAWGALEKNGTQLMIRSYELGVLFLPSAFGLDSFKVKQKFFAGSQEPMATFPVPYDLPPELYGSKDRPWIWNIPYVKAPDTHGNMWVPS

C[C@H](CCC(=O)NCCc1c[nH]c2ccccc12)[C@H]1CC[C@H]2[C@@H]3CC[C@@H]4C[C@H](OCc5ccccc5)CC[C@]4(C)[C@H]3C[C@H](OCc3ccccc3)[C@]12C [Compound 4, N-(2″-(1H-Indol-3′-yl)ethyl)-3α,12α-dibenzyloxy-5β-cholane-24-amide]
IC50 (TDP1): 750 ± 170 nM
CC50 at 72 h [1]: > 100000 nM
Tdp2 activity, c 200 µM (recombinant human TDP2): +
Tdp2 (inhibitor concentration 1 mM) (recombinant human TDP2): +
remaining activity at 1000 µM (recombinant human TDP2): 35 ± 4%
CC50 at 72 h [2]: > 100000 nM

C[C@H](CCC(=O)NCCc1c[nH]c2ccccc12)[C@H]1CC[C@H]2[C@@H]3CC[C@@H]4C[C@H](OCc5ccccc5)CC[C@]4(C)[C@H]3C[C@H](O)[C@]12C [Compound 5, N-(2″-(1H-Indol-3′-yl)ethyl)-3α-benzyloxy-12α-hydroxy-5β-cholane-24-amide]
CI (HeLa cells [3]; Dose Tpc 0.3 + compound 10 μM): 0.4463
Effect (HeLa cells [3]; Dose Tpc 0.3 + compound 10 μM): 0.61
CI (HeLa cells [3]; Dose Tpc 0.5 + compound 10 μM): 0.3748
Effect (HeLa cells [3]; Dose Tpc 0.5 + compound 10 μM): 0.76
CI (HeLa cells [3]; Dose Tpc 1.0 + compound 10 μM): 0.3937
Effect (HeLa cells [3]; Dose Tpc 1.0 + compound 10 μM): 0.86
CI (HeLa cells [3]; Dose Tpc 2.0 + compound 10 μM): 0.2628
Effect (HeLa cells [3]; Dose Tpc 2.0 + compound 10 μM): 0.95
CI (HeLa cells [3]; Dose Tpc 4.0 + compound 10 μM): 0.4189
Effect (HeLa cells [3]; Dose Tpc 4.0 + compound 10 μM): 0.96
IC50 (TDP1): 240 ± 10 nM
CC50 at 72 h [1]: > 100000 nM
HeLa cell death (HeLa cells [4]): 40%
sensitizing effect on topotecan cytotoxicity (HeLa cells [5]): greatest sensitizing effect
Tdp2 activity, c 200 µM (recombinant human TDP2): +
Tdp2 (inhibitor concentration 1 mM) (recombinant human TDP2): +
remaining activity at 1000 µM (recombinant human TDP2): 28 ± 5%
CC50 at 72 h [2]: > 100000 nM

C[C@H](CCC(=O)NCCc1c[nH]c2ccccc12)[C@H]1CC[C@H]2[C@@H]3CC[C@@H]4C[C@H](OCc5ccccc5)CC[C@]4(C)[C@H]3CC(=O)[C@]12C [Compound 6, N-(2″-(1H-Indol-3′-yl)ethyl)-3α-benzyloxy-12-oxo-5β-cholane-24-amide]
IC50 (TDP1): 590 ± 130 nM
CC50 at 72 h [1]: > 100000 nM
Tdp2 activity, c 200 µM (recombinant human TDP2): +
Tdp2 (inhibitor concentration 1 mM) (recombinant human TDP2): +
remaining activity at 1000 µM (recombinant human TDP2): 45 ± 4%
CC50 at 72 h [2]: > 100000 nM

C[C@H](CCC(=O)Nc1ccc(Br)cc1)[C@H]1CC[C@H]2[C@@H]3CC[C@@H]4C[C@H](OCc5ccccc5)CC[C@]4(C)[C@H]3CC(=O)[C@]12C [Compound 9, N-(4′-Bromophenyl)-3α-benzyloxy-12-oxo-5β-cholane-24-amide]
IC50 (TDP1): 710 ± 340 nM
CC50 at 72 h [1]: > 100000 nM
Tdp2 activity, c 200 µM (recombinant human TDP2): +
Tdp2 (inhibitor concentration 1 mM) (recombinant human TDP2): +
remaining activity at 1000 µM (recombinant human TDP2): 39 ± 6%
CC50 at 72 h [2]: > 100000 nM

C[C@H](CCC(=O)NCCCc1cc(C(C)(C)C)c(O)c(C(C)(C)C)c1)[C@H]1CC[C@H]2[C@@H]3CC[C@@H]4C[C@H](OCc5ccccc5)CC[C@]4(C)[C@H]3C[C@H](OCc3ccccc3)[C@]12C [Compound 10, N-(3″-(3′,5′-Di-tert-butyl-4′-hydroxyphenyl)propyl)-3α,12α-dibenzyloxy-5β-cholane-24-amide]
IC50 (TDP1): 370 ± 170 nM
CC50 at 72 h [1]: > 100000 nM
Tdp2 activity, c 200 µM (recombinant human TDP2): +
Tdp2 (inhibitor concentration 1 mM) (recombinant human TDP2): +
remaining activity at 1000 µM (recombinant human TDP2): 45 ± 6%
CC50 at 72 h [2]: > 100000 nM

C[C@H](CCc1nc(-c2ccc(Br)cc2)no1)[C@H]1CC[C@H]2[C@@H]3CC[C@@H]4C[C@H](OCc5ccccc5)CC[C@]4(C)[C@H]3C[C@H](OCc3ccccc3)[C@]12C [Compound 15, 5′-(24-Nor-3α,12α-Dibenzyloxy-5β-cholan-23-yl)-3′-(4″-bromophenyl)-1′,2′,4′-oxadiazole]
IC50 (TDP1): 420 ± 300 nM
melting point: 130.2 to 135.5 °C
Tdp2 activity, c 200 µM (recombinant human TDP2): -
Tdp2 (inhibitor concentration 1 mM) (recombinant human TDP2): -
remaining activity at 1000 µM (recombinant human TDP2): > 50%

C[C@H](CCC(=O)NN)[C@H]1CC[C@H]2[C@@H]3CC[C@@H]4C[C@H](OCc5ccccc5)CC[C@]4(C)[C@H]3C[C@H](OCc3ccccc3)[C@]12C [Compound 17, 3α,12α-Dibenzyloxy-5β-cholan-24-hydrazide]
IC50 (TDP1): 230 ± 80 nM
melting point: 179 to 180 °C
Tdp2 activity, c 200 µM (recombinant human TDP2): +
Tdp2 (inhibitor concentration 1 mM) (recombinant human TDP2): +
remaining activity at 1000 µM (recombinant human TDP2): > 50%

C[C@H](CCC(=O)N/N=C/c1ccc(Br)cc1)[C@H]1CC[C@H]2[C@@H]3CC[C@@H]4C[C@H](OCc5ccccc5)CC[C@]4(C)[C@H]3C[C@H](OCc3ccccc3)[C@]12C [Compound 18, N’-(4″-Bromobenzylidene)-3α,12α-dibenzyloxy-5β-cholan-24-hydrazide]
IC50 (TDP1): 510 ± 210 nM
melting point: 147.7 to 150 °C
Tdp2 activity, c 200 µM (recombinant human TDP2): +
Tdp2 (inhibitor concentration 1 mM) (recombinant human TDP2): +
remaining activity at 1000 µM (recombinant human TDP2): < 50%

C[C@H](CCc1nnc(-c2ccc(Br)cc2)o1)[C@H]1CC[C@H]2[C@@H]3CC[C@@H]4C[C@H](OCc5ccccc5)CC[C@]4(C)[C@H]3C[C@H](OCc3ccccc3)[C@]12C [Compound 19, 2′-(24-Nor-3α,12α-dibenzyloxy-5β-cholan-23-yl)-5′-(4″-bromophenyl)-1′,3′,4′-oxadiazole]
IC50 (TDP1): 1010 ± 430 nM
melting point: 131.4 °C (dec.)
remaining activity at 1000 µM (recombinant human TDP2): < 50%

COc1cc([C@@H]2c3cc4c(cc3[C@@H](O[C@@H]3O[C@@H]5CO[C@@H](C)O[C@H]5[C@H](O)[C@H]3O)[C@H]3COC(=O)[C@H]23)OCO4)cc(OC)c1O [Etoposide, reference compound]
CC50 at 72 h [1]: 6200 ± 600 nM
semi-toxic concentrations (HeLa cells [6]): micromolar
CC50 at 72 h [2]: 5900 ± 1800 nM

CC[C@@]1(O)C(=O)OCc2c1cc1n(c2=O)Cc2cc3c(CN(C)C)c(O)ccc3nc2-1 [Topotecan, reference compound]
CC50 at 72 h [1]: 900 ± 100 nM
semi-toxic concentrations (HeLa cells [6]): submicromolar
CC50 at 72 h [2]: 330 ± 70 nM
